Reference: ChEMBL document CHEMBL3272160, “Synthesis and some pharmacological properties of [1-(L-2-hydroxy-3-mercaptopropanoic acid), 4-threonine]oxytocin (hydroxy [4-thr]oxytocin), a peptide with strikingly high oxytocic potency and of [1-(L-2-hydroxy-3-mercaptopropanoic acid)]oxytocin (hydroxy-oxytocin)” (J Med Chem, 1976)
*1 amine or outer side, *2 acyl side, *3 side chain or, on linkers, in order; H or OH if unused. Where a SMILES comes first, the peptide text is derived from it. Bridges are numbered along the chain shown (N, C = ends). [ ]: non-standard residue; d: D form. Abu(4-yl) = O=C([C@H](CC[*:3])N[*:1])[*:2]; X1 = O=C([C@@H](O)CS[*:2])[*:1]; X2 = O=C(CCC[*:2])[*:1]; Mpa = O=C(O)CCS

How the values were obtained:
[1] = target: T1, Oxytocin receptor (Rattus norvegicus) (UniProt P70536); experiment: Activity at oxytocin receptor in rat uterus; assay type: tissue-based
T1 sequence (whole entry): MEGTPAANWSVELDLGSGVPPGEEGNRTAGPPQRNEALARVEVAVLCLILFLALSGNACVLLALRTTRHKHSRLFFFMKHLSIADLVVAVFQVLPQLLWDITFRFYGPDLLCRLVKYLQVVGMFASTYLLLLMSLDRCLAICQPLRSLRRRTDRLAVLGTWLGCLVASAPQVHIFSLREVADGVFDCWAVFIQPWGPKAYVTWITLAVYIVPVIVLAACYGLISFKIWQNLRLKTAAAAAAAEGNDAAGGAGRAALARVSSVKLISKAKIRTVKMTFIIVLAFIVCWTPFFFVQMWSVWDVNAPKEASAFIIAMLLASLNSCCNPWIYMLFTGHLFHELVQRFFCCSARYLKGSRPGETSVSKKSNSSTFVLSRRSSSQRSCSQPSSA

[2] = target: T1, Oxytocin receptor (Rattus norvegicus); experiment: Activity at oxytocin receptor in rat uterus in presence of 0.5 mM Mg2+; assay type: tissue-based
[3] = target: T1, Oxytocin receptor (Rattus norvegicus); experiment: Activity at oxytocin receptor in rat mammary strip
Rattus norvegicus [4] = species: Rattus norvegicus; experiment: Vasopressor activity in rat; assay type: ADME, organism-based; conditions: in vivo
Rattus norvegicus [5] = species: Rattus norvegicus; experiment: Antidiuretic activity in rat; assay type: ADME, organism-based, Urine; conditions: in vivo
[6] = Ratio of activity at oxytocin receptor in rat uterus to vasopressor activity in rat
[7] = Ratio of activity at oxytocin receptor in rat uterus to antidiuretic activity in rat; design: species or system Urine
[8] = target: T1, Oxytocin receptor (Rattus norvegicus); experiment: Activity at oxytocin receptor in rat uterus relative to oxytocin; assay type: tissue-based
Rattus norvegicus [9] = species: Rattus norvegicus; experiment: Oxytocic activity in rat assessed as milk ejection; assay type: functional
Oryctolagus cuniculus = species: Oryctolagus cuniculus; experiment: Oxytocic activity in rabbit assessed as milk ejection; assay type: functional

SMILES	Activity [1]	Activity [2]	Activity [3]	Activity (Rattus norvegicus [4])	Activity (Rattus norvegicus [5])	Ratio [6]	Ratio [7]	Ratio [8]	Activity (Rattus norvegicus [9])	Activity (Oryctolagus cuniculus)
CC[C@H](C)[C@@H]1NC(=O)[C@H](Cc2ccc(O)cc2)NC(=O)CCCSC[C@@H](C(=O)N2CCC[C@H]2C(=O)N[C@@H](CC(C)C)C(=O)NCC(N)=O)NC(=O)[C@H](CC(N)=O)NC(=O)[C@H](CCC(N)=O)NC1=O (YIQNCPLG-NH2; linker N-5 via X2)	1900 U/mg	921 U/mg	581 U/mg	17.5 U/mg	24.1 U/mg	108	79	4		
CC[C@H](C)[C@@H]1NC(=O)[C@H](Cc2ccc(O)cc2)NC(=O)[C@@H](O)CSSC[C@@H](C(=O)N2CCC[C@H]2C(=O)N[C@@H](CC(C)C)C(=O)NCC(N)=O)NC(=O)[C@H](CC(N)=O)NC(=O)[C@H](CCC(N)=O)NC1=O (YIQNCPLG-NH2; linker N-5 via X1)	1280 U/mg	868 U/mg	363 U/mg	14.7 U/mg	16.6 U/mg	50	77	2.45	694 U/mg	
CC[C@H](C)[C@@H]1NC(=O)[C@H](Cc2ccc(O)cc2)NC(=O)[C@@H](N)CSSC[C@@H](C(=O)N2CCC[C@H]2C(=O)N[C@@H](CC(C)C)C(=O)NCC(N)=O)NC(=O)[C@H](CC(N)=O)NC(=O)[C@H]([C@@H](C)O)NC1=O (H-CYITNCPLG-NH2; disulfide 1-6)	923 U/mg	719 U/mg		0.43 U/mg	1.8 U/mg	2146	513	> 4		543 U/mg
CC[C@H](C)[C@@H]1NC(=O)[C@H](Cc2ccc(O)cc2)NC(=O)[C@@H](O)CSSC[C@@H](C(=O)N2CCC[C@H]2C(=O)N[C@@H](CC(C)C)C(=O)NCC(N)=O)NC(=O)[C@H](CC(N)=O)NC(=O)[C@H]([C@@H](C)O)NC1=O (YITNCPLG-NH2; linker N-5 via X1)	4180 U/mg	937 U/mg	378 U/mg	4.92 U/mg	5.3 U/mg	849	788	8	808 U/mg	
CC[C@H](C)[C@@H]1NC(=O)[C@H](Cc2ccc(O)cc2)NC(=O)CCSSC[C@@H](C(=O)N2CCC[C@H]2C(=O)N[C@@H](CC(C)C)C(=O)NCC(N)=O)NC(=O)[C@H](CC(N)=O)NC(=O)[C@H](CCC(N)=O)NC1=O [DEMOXYTOCIN]				1.44 U/mg	19 U/mg	558	42			541 U/mg
CC[C@H](C)[C@@H]1NC(=O)[C@H](Cc2ccc(O)cc2)NC(=O)CCSSC[C@@H](C(=O)N2CCC[C@H]2C(=O)N[C@@H](CC(C)C)C(=O)NCC(N)=O)NC(=O)[C@H](CC(N)=O)NC(=O)[C@H]([C@@H](C)O)NC1=O ([Mpa]YITNCPLG-NH2; disulfide 1-6)	149 U/mg	242 U/mg		< 0.1 U/mg	0.9 U/mg		165			385 U/mg
CC[C@H](C)[C@@H]1NC(=O)[C@H](Cc2ccc(O)cc2)NC(=O)[C@@H](N)CSSC[C@@H](C(=O)N2CCC[C@H]2C(=O)N[C@@H](CC(C)C)C(=O)NCC(N)=O)NC(=O)[C@H](CC(N)=O)NC(=O)[C@H](CCC(N)=O)NC1=O [OXYTOCIN]	520 U/mg	486 U/mg			4 U/mg			> 7		474 U/mg
CC[C@H](C)[C@@H]1NC(=O)[C@H](Cc2ccc(O)cc2)NC(=O)[C@@H](N)CCSC[C@@H](C(=O)N2CCC[C@H]2C(=O)N[C@@H](CC(C)C)C(=O)NCC(N)=O)NC(=O)[C@H](CC(N)=O)NC(=O)[C@H](CCC(N)=O)NC1=O (H-[Abu(4-yl)]YIQNCPLG-NH2; thioether 1-6)	734 U/mg		177 U/mg	2.95 U/mg	9.3 U/mg	249	79			
CC[C@H](C)[C@@H]1NC(=O)[C@H](Cc2ccc(O)cc2)NC(=O)CCSSC[C@H](C(=O)N2CCC[C@H]2C(=O)N[C@@H](CC(C)C)C(=O)NCC(N)=O)NC(=O)[C@H](CC(N)=O)NC(=O)[C@H](CCC(N)=O)NC1=O		760 U/mg								
